Data set [1] concerns eye of a subject. In words: IOP over time in a patient with a bimatoprost-loaded insert on one eye (FIG. 23). Type of data set: in vivo, human. To be noted: right eye (OD) with ring insert, silicone matrix (NuSil Med 4810) with about 2% bimatoprost, decreased from about 22 mm Hg, to about 28 days post-op. The text has this:
(§1) Test devices comprising a ring shaped retention structure comprising a nylon suture and a support structure 120 having inclined surfaces were placed in an eye of a subject. The support structure comprised a therapeutic agent contained in a silicone matrix. The silicone matrix comprised inclusions of the therapeutic agent as described herein, and the therapeutic agent comprised a prostaglandin. The silicone matrix comprised NuSil Med 4810 and the amount prostaglandin comprised about 2% bimatoprost. The cross-sectional diameter of the support comprising the matrix was about 1 mm and extended about 90 degrees around the ring shaped suture with the suture extending there through. The amount of therapeutic agent within the matrix can be increased with additional studies and embodiments, for example to within a range from about 5-10% prostaglandin such as bimatoprost. […] The ring was inserted in the right eye (OD) and the TOP decreased from about 22 mm Hg to within a range from about 15 to 18 mm Hg to about 28 days post-op. The TOP of the untreated left eye (OS) remained substantially constant and within a range from about 19 mm Hg to about 22 mm Hg. The therapeutic agent comprised a prostaglandin, bimatoprost, and the estimated amount released per day started at approximately 22 ug/day and decreased to approximately 1 ug/day. […]

Data set [2] can be described thus: Estimated amount of bimatoprost released per day from the Experiment 6 test device. Type of data set: physicochemical. To be noted: insert with about 2% bimatoprost in silicone matrix.
From the text: as §1

The nature of data set [3]: Rate of release of bimatoprost from insert with silicone matrix (FIGS. 26A, 26B). It is filed as physicochemical. The procedure: FIGS. 26A and 26B show rates of release of prostaglandin comprising bimatoprost from an insert comprising a silicone matrix. The estimated rate of release for a matrix having 7% prostaglandin comprising bimatoprost loaded on the insert is above 3.5 ug per day for at least about 90 days. The rate of release of prostaglandin comprising bimatoprost was measured from a matrix comprising medical grade silicone having an approximate durometer of 10 A. The configuration of the insert and matrix is described in Table 3 with reverence to mono v.1 which comprises a 1 mm diameter silicone matrix extending along a 75 degree arc length. The surface area was 47.9 mm^2 and the volume 10.4 mm^3. For the 7% loading the amount of drug loaded on the device was about 700 μg. The rate of release of about 0.9 ug/day for 90 days was measured and the rate of release for 120 days was estimated. The therapeutic agent was released for 70 days above 1 ug per day. Based on Table 3, the matrix can be configured to release additional amounts therapeutic agent. For example, the rate of release can be increased by more than 4× by extending the matrix 360 degrees around the suture.

A short description of data set [4]: Wash time in 70% isopropanol bath and rate of release from silicone matrices (FIG. 27). It is filed as physicochemical. The settings on record: silicone ring with 7% bimatoprost; for elution rate: initial. The procedure:
The experiments were conducted with silicone rings having 7% prostaglandin comprising bimatoprost and medical grade silicone having a rated durometer of Shore A 10 without drug. The elution rate for the unwashed matrix (“0 wash”) was about 35 ug per day and decreased substantially. […] By day 14 the rate of release was substantially the same for each of the unwashed matrix, the matrix washed for 15 minutes, matrix washed for 60 minutes, and the matrix washed for 180 minutes.

Data set [5] deals with eye of a test subject. In words: IOP of a test subject wearing successive inserts (FIG. 28). Type of data set: in vivo, human. The procedure:
The initial studies on the test subject appear to indicate it may be helpful to provide greater amounts of therapeutic agent than would be provided based on eye drop estimates. The TOP was measured and amounts of therapeutic agent estimated. […] The twin insert was placed in a solution when the patient insert was placed in the eye. The measured rate of release of the twin placed in solution was used to determine the rate of release of the insert placed in the eye. The data of this small study indicate that in at least some instances for some patients, the target threshold amount of therapeutic agent released continuously from an insert placed in the eye may be greater than the amount provided to tissue by drops. It was observed that providing amounts of therapeutic agent greater than the estimated amount provided by drops may provide an improved result. It was observed that after about sixty days the TOP had increased to about 19.5 mm Hg was close to the control eye, and the determined rate of release was about 1.2 ug of prostaglandin comprising bimatoprost per day. The insert was replaced with a second insert providing a rate of release of about 1.6 to 2.5 ug per day based on twin measurements, and the TOP decreased to within a range from about 17 to 18 mm Hg. The second insert was replaced with a third insert providing over 3.8 to 4 ug per day based on twin measurements, and the TOP decreased further to within a range from 14.5 to 16 mm Hg.

Data set [6] is described as follows: Rate of release measured on twin insert placed in solution (FIG. 28). Type of data set: physicochemical. The settings on record: for rate of release: based on twin measurements. How it is done: The initial studies on the test subject appear to indicate it may be helpful to provide greater amounts of therapeutic agent than would be provided based on eye drop estimates. The TOP was measured and amounts of therapeutic agent estimated. […] The twin insert was placed in a solution when the patient insert was placed in the eye. The measured rate of release of the twin placed in solution was used to determine the rate of release of the insert placed in the eye.

Where [7] appears, read: 60 minute wash in 70% isopropanol.
Where [8] appears, read: 180 minute wash in 70% isopropanol.

Results on one compound are retold here after patent publication US10835416B2, “Ocular insert apparatus and methods” (ForSight Vision5, Inc., priority 2011, dated 2020).

Structures are written as SMILES.

For the compound `CCNC(=O)CCC/C=C\C[C@@H]1[C@@H](/C=C/[C@@H](O)CCc2ccccc2)[C@H](O)C[C@@H]1O` [bimatoprost], the TOP in data set [1] is 15 to 18 mm Hg; in data set [5] (first insert, after about sixty days, close to the control eye), “about 19.5 mm Hg”; in data set [5] (second insert) it was 17 to 18 mm Hg; in data set [5] (third insert), 14.5 to 16 mm Hg. The “estimated amount released per day, end” value in data set [2] (decreased to) was “about 1 ug/day”. Further, in data set [2] (started at), the “estimated amount released per day, start” value is listed as “about 22 ug/day”. The “estimated rate of release” value in data set [3] (matrix having 7% bimatoprost loaded on an insert, for at least about 120 days) is given as “above 3 ug per day”; in data set [3] (matrix having 7% bimatoprost loaded on the insert, for at least about 90 days), “above 3.5 ug per day”. Moreover, the rate of release entry in data set [3] (mono v.1: 1 mm diameter 10 A silicone matrix, 75 degree arc, 7% loading (about 700 μg), measured for 90 days) is “about 0.9 ug/day”; in data set [6] (second insert), 1.6 to 2.5 ug per day; in data set [6] (third insert), 3.8 to 4 ug per day. Moreover, the “initial rate of release” value in data set [4] (setting [7]) and in data set [4] (setting [8]) was “about 13 ug per day” in each case. For the same compound, the “rate of release at 15 days” value in data set [4] (setting [7]) and in data set [4] (setting [8]) was “about 5 ug per day” each time. In addition, the values for the elution rate entry in data set [4] (unwashed matrix (0 wash)) and in data set [4] (washed for 15 minutes in 70% isopropanol) were “about 35 ug per day” and “about 17 ug per day”, respectively. Moreover, in data set [6] (first insert, after about sixty days, twin insert in solution), the “determined rate of release” value was “about 1.2 ug per day”.
